From PubChem BioAssay (NCI)
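Where inhibition never reached the appropriate level, the endpoint shown equals the highest concentration tested. Otherwise, values were interpolated linearly from a five-concentration, 48-hour dose response in 96-well plates. At the GI50, growth is halved. The concentration for full growth arrest is given as TGI.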

Assays:
Test in all cases: DTP human tumour cell line panel, 48 h
[1] = test system: NCI-H226 lung
[2] = test system: SK-MEL-2 melanoma
[3] = test system: HT29 colon
[4] = test system: RXF 393 renal
[5] = test system: UACC-257 melanoma
[6] = test system: BT-549 breast
[7] = test system: CAKI-1 renal
[8] = test system: SW-620 colon
[9] = test system: HCT-116 colon
[10] = test system: HCC-2998 colon
[11] = test system: KM12 colon
[12] = test system: SF-268 CNS
[13] = test system: TK-10 renal
[14] = test system: LOX IMVI melanoma
[15] = test system: OVCAR-8 ovarian
[16] = test system: RPMI-8226 leukemia
[17] = test system: U251 CNS
[18] = test system: SR leukemia
[19] = test system: NCI-H460 lung
[20] = test system: OVCAR-4 ovarian
[21] = test system: CCRF-CEM leukemia
[22] = test system: UACC-62 melanoma
[23] = test system: COLO 205 colon
[24] = test system: SF-295 CNS
[25] = test system: SN12C renal
[26] = test system: UO-31 renal
[27] = test system: EKVX NSCLC
[28] = test system: MDA-MB-231 breast
[29] = test system: NCI/ADR-RES ovarian
[30] = test system: 786-0 renal
[31] = test system: SK-MEL-28 melanoma
[32] = test system: K-562 leukemia
[33] = test system: OVCAR-5 ovarian
[34] = test system: MCF7 breast
[35] = test system: HS 578T breast
[36] = test system: A549 NSCLC
[37] = test system: NCI-H23 lung
[38] = test system: A498 renal
[39] = test system: ACHN renal
[40] = test system: HOP-62 NSCLC
[41] = test system: MDA-MB-435
[42] = test system: HCT-15 colon
[43] = test system: HOP-92 NSCLC
[44] = test system: SNB-19 CNS
[45] = test system: SK-OV-3 ovarian
[46] = test system: NCI-H522 lung
[47] = test system: SK-MEL-5 melanoma
[48] = test system: PC-3 prostate
[49] = test system: SNB-75 CNS
[50] = test system: MOLT-4 leukemia
[51] = test system: SF-539 CNS
[52] = test system: IGROV1 ovarian
[53] = test system: DU-145 prostate
[54] = test system: M14 melanoma
[55] = test system: HL-60(TB) leukemia
[56] = test system: MALME-3M melanoma

For `CCN1C(=O)N(CC)C2SC(N/N=C/c3ccc(OC)cc3)=NC21` (stereo not drawn), the GI50 [1] was 0.438 µM, the TGI [1] was > 72 µM and the GI50 [2] was 0.504 µM. For the same molecule, the TGI [2] was > 100 µM, the GI50 [3] was 0.322 µM and the TGI [3] was 1.28 µM. For the same molecule, the GI50 [4] was 0.282 µM, the TGI [4] was > 100 µM and the GI50 [5] was 2.32 µM. The TGI [5] was > 100 µM, the GI50 [6] was 0.322 µM and the TGI [6] was 1.32 µM. The GI50 [7] was 0.425 µM, the TGI [7] was > 100 µM and the GI50 [8] was 0.38 µM. The TGI [8] was > 100 µM, the GI50 [9] was 0.394 µM and the TGI [9] was > 40.3 µM. For the same molecule, the GI50 [10] was 0.795 µM, the TGI [10] was > 100 µM and the GI50 [11] was 0.457 µM. The TGI [11] was > 100 µM, the GI50 [12] was 2.51 µM and the TGI [12] was > 100 µM. For the same molecule, the GI50 [13] was > 100 µM, the TGI [13] was > 100 µM and the GI50 [14] was 0.564 µM. For the same molecule, the TGI [14] was > 100 µM, the GI50 [15] was 0.428 µM and the TGI [15] was 6.61 µM. For the same molecule, the GI50 [16] was 0.423 µM, the TGI [16] was > 100 µM and the GI50 [17] was 0.365 µM. The TGI [17] was > 100 µM, the GI50 [18] was 0.308 µM and the TGI [18] was > 100 µM. The GI50 [19] was 0.357 µM, the TGI [19] was > 100 µM and the GI50 [20] was > 100 µM. The TGI [20] was > 100 µM, the GI50 [21] was 0.334 µM and the TGI [21] was > 100 µM. For the same molecule, the GI50 [22] was 0.39 µM, the TGI [22] was > 100 µM and the GI50 [23] was 0.273 µM. For the same molecule, the TGI [23] was 0.751 µM, the GI50 [24] was 0.317 µM and the TGI [24] was > 83.8 µM. For the same molecule, the GI50 [25] was 0.594 µM, the TGI [25] was > 100 µM and the GI50 [26] was 0.686 µM. For the same molecule, the TGI [26] was > 100 µM, the GI50 [27] was 0.704 µM and the TGI [27] was > 100 µM. For the same molecule, the GI50 [28] was 0.868 µM, the TGI [28] was > 100 µM and the GI50 [29] was 0.395 µM. The TGI [29] was > 100 µM, the GI50 [30] was 0.849 µM and the TGI [30] was 51.7 µM. For the same molecule, the GI50 [31] was > 100 µM, the TGI [31] was > 100 µM and the GI50 [32] was 0.35 µM. The TGI [32] was > 100 µM, the GI50 [33] was 0.917 µM and the TGI [33] was > 100 µM. For the same molecule, the GI50 [34] was 0.381 µM, the TGI [34] was > 100 µM and the GI50 [35] was 0.305 µM. For the same molecule, the TGI [35] was > 100 µM, the GI50 [36] was 0.666 µM and the TGI [36] was > 100 µM. The GI50 [37] was 0.57 µM, the TGI [37] was > 100 µM and the GI50 [38] was 0.217 µM. The TGI [38] was 0.685 µM, the GI50 [39] was 0.811 µM and the TGI [39] was > 100 µM. For the same molecule, the GI50 [40] was 0.433 µM, the TGI [40] was > 100 µM and the GI50 [41] was 0.205 µM. For the same molecule, the TGI [41] was 0.522 µM, the GI50 [42] was 0.404 µM and the TGI [42] was > 100 µM. It also gave a GI50 [43] of 0.283 µM, a TGI [43] of 4.66 µM and a GI50 [44] of 0.464 µM. The TGI [44] was > 100 µM, the GI50 [45] was 0.453 µM and the TGI [45] was > 100 µM. It also gave a GI50 [46] of 0.235 µM, a TGI [46] of 0.76 µM and a GI50 [47] of 0.462 µM. The TGI [47] was 3.01 µM, the GI50 [48] was 0.449 µM and the TGI [48] was > 100 µM. For the same molecule, the GI50 [49] was 0.321 µM, the TGI [49] was > 100 µM and the GI50 [50] was 0.589 µM. For the same molecule, the TGI [50] was > 100 µM, the GI50 [51] was 0.269 µM and the TGI [51] was 0.857 µM. For the same molecule, the GI50 [52] was 0.648 µM, the TGI [52] was > 100 µM and the GI50 [53] was 0.478 µM. The TGI [53] was > 100 µM, the GI50 [54] was 0.322 µM and the TGI [54] was 34.2 µM. It also gave a GI50 [55] of 0.281 µM and a TGI [55] of 9.06 µM.
In the case of `Fc1cccc(Cl)c1/C=N/Nc1nc(N/N=C/c2c(F)cccc2Cl)nc(N2CCCCC2)n1`, the GI50 [1] is reported as 6.48 µM, the TGI [1] is reported as > 100 µM and the GI50 [2] is reported as 1.69 µM. The TGI [2] was 3.91 µM, the GI50 [3] was 2.9 µM and the TGI [3] was > 100 µM. For the same molecule, the GI50 [4] was 2.65 µM, the TGI [4] was 11.5 µM and the GI50 [6] was 4.45 µM. For the same molecule, the TGI [6] was 20.9 µM, the GI50 [7] was 3.01 µM and the TGI [7] was 15.5 µM. For the same molecule, the GI50 [8] was 3.51 µM, the TGI [8] was > 100 µM and the GI50 [9] was 2.83 µM. The TGI [9] was 11.9 µM, the GI50 [10] was 3.68 µM and the TGI [10] was > 100 µM. The GI50 [11] was 2.93 µM, the TGI [11] was > 100 µM and the GI50 [12] was 4.22 µM. For the same molecule, the TGI [12] was 52.9 µM, the GI50 [13] was 3.73 µM and the TGI [13] was 9.11 µM. For the same molecule, the GI50 [14] was 3.77 µM, the TGI [14] was > 100 µM and the GI50 [15] was 3.89 µM. The TGI [15] was > 100 µM, the GI50 [56] was 2.21 µM and the TGI [56] was 6.26 µM. The GI50 [16] was 2.26 µM, the TGI [16] was > 100 µM and the GI50 [17] was 3.56 µM. The TGI [17] was 22.5 µM, the GI50 [19] was 3.14 µM and the TGI [19] was > 100 µM. The GI50 [20] was 2.58 µM, the TGI [20] was > 100 µM and the GI50 [22] was 2.35 µM. The TGI [22] was 9.5 µM, the GI50 [24] was 1.01 µM and the TGI [24] was 10.7 µM. For the same molecule, the GI50 [25] was 2.85 µM, the TGI [25] was > 100 µM and the GI50 [26] was 2.01 µM. For the same molecule, the TGI [26] was > 100 µM, the GI50 [27] was 1.54 µM and the TGI [27] was > 100 µM. For the same molecule, the GI50 [28] was 7.65 µM, the TGI [28] was 24.4 µM and the GI50 [29] was 2.76 µM. The TGI [29] was > 100 µM, the GI50 [30] was 3.44 µM and the TGI [30] was 14.7 µM. The GI50 [31] was 3.41 µM, the TGI [31] was > 100 µM and the GI50 [32] was 3.08 µM. The TGI [32] was > 100 µM, the GI50 [33] was 3.8 µM and the TGI [33] was > 100 µM. For the same molecule, the GI50 [35] was 2.44 µM, the TGI [35] was 15.4 µM and the GI50 [36] was 3.04 µM. For the same molecule, the TGI [36] was > 100 µM, the GI50 [37] was 3.42 µM and the TGI [37] was 16.8 µM. It also gave a GI50 [38] of 2.4 µM, a TGI [38] of 13.2 µM and a GI50 [39] of 3.04 µM. For the same molecule, the TGI [39] was 12.8 µM, the GI50 [40] was 2.85 µM and the TGI [40] was 12 µM. For the same molecule, the GI50 [41] was 2.86 µM, the TGI [41] was > 100 µM and the GI50 [42] was 2.82 µM. For the same molecule, the TGI [42] was > 100 µM, the GI50 [43] was 1.47 µM and the TGI [43] was 5.36 µM. The GI50 [44] was 3.25 µM, the TGI [44] was 18 µM and the GI50 [45] was 3.65 µM. It also gave a TGI [45] of 15.4 µM, a GI50 [46] of 2.57 µM and a TGI [46] of 9.68 µM. For the same molecule, the GI50 [48] was 2.06 µM, the TGI [48] was > 100 µM and the GI50 [49] was 2.36 µM. The TGI [49] was 10.5 µM, the GI50 [51] was 7.65 µM and the TGI [51] was 24.3 µM. For the same molecule, the GI50 [52] was 3.16 µM, the TGI [52] was > 100 µM and the GI50 [53] was 11.7 µM. For the same molecule, the TGI [53] was > 100 µM, the GI50 [54] was 2.4 µM and the TGI [54] was 9 µM. The GI50 [55] was 2 µM and the TGI [55] was > 100 µM.
